Experimental data as given in patent publication US5756345A, “Production of tryptophan by the bacterium Escherichia coli” (Degussa Aktiengesellschaft, priority 1995, dated 1998).
Like-named read-outs stand apart in the source and are kept apart here.

Columns and labels:
[1] = tested on: tryptophan auxotrophs with wild-type trpS allele able to actively transport tryptophan; experiment: Growth response to tryptophan, auxotrophs with wild-type trpS and active transport; type: cell-based, Escherichia coli; details: minimal medium
[2] = tested on: anthranilate synthase (wild-type strains); details: read-out: tryptophan concentration giving about 50% inhibition of anthranilate synthase activity; cited from earlier work
[3] = tested on: anthranilate synthase of feedback-resistant mutants; details: cited from earlier work
[4] = target: anthranilate synthase encoded by trpE382 (Escherichia coli, UniProt P00895); experiment: Feedback inhibition of anthranilate synthase by tryptophan, trpE382 enzyme; type: biochemical
[5] = target: anthranilate synthase encoded by trpE483 (Escherichia coli, UniProt P00895); experiment: Feedback inhibition of anthranilate synthase by tryptophan, trpE483 enzyme; type: biochemical; details: tryptophan 13.5 g/l
From the text: Plasmid pMU3018 (FIG. 6) carries the tip promoter, the trpE gene and part of the trpD gene on a 2.9 kb SmaI HindIII fragment. pMU3018 is derived from pMU578, which is a single-copy Tp^R plasmid carrying a galK'-lac'ZA fusion, similar to the promoter cloning vector pMU575 (Andrews, A. E., B. Lawley, and A. J. Pittard. (1991). J. Bacteriol. 173: 5068-5078), but with a SmaI EcoRI BglII linker replacing the SmaI site, and the DraI fragments removed, deleting lacY and lacA. If pMU3018 DNA is digested with these two enzymes and the fragments electrophoresed in a low melting point agarose gel it is a simple matter to separate and purify the trpEtrpD' 2.9 kb fragment and the larger 13 kb vector fragment. This 2.9 kb fragment was mutagenised with 50 mM nitrous acid for 60 minutes following the method of Ray et al. (Ray, J. M., C. Yanofsky and R. Bauerle. (1988). J. Bacteriol. 170: 5500-5506), except that spermine (1 mM) was added to the mutagenesis mixture. […]

[6] = tested on: tryptophan auxotroph unable to actively transport tryptophan (JP7847); experiment: Growth response to tryptophan, trpS+ auxotroph defective in active transport; type: cell-based, Escherichia coli; details: minimal medium
From the text: (§1) JP6006 is derived from JP4153 by introduction of ΔtrpLE1413 by P1 transduction using TN10 as a linked marker and isolation of a tetracycline-sensitive derivative, followed by introduction of sac^+ by P1 transduction, using a P1 lysate grown on sac^+ strain GA122 (Alaeddinoglu, N. G. and H. P. Charles. (1979). J. Gen. Microbiol. 110: 47-59). JP4153 is aroF363 aroG103(FBR) aroH371(FBR) trpE382(FBR) trpR363 tyrR366 trpS378 aroP579 mtr-24 tna-1. JP7847 is a trpS^+ derivative of JP6006, isolated by P1 transduction.
(§2) Cells were grown in minimal medium supplemented with different levels of tryptophan at 30° C. Growth was measured by optical density with a Klett colorimeter and doubling times were calculated from the exponential phase of each growth curve.

[7] = target: T1, anthranilate synthase encoded by trpE476 (Escherichia coli, UniProt P00895); experiment: Feedback inhibition of anthranilate synthase by tryptophan, trpE476 enzyme; type: biochemical
T1 construct: plasmid pMU3019 in trpE-deleted JP6768 (trpDCBA functional), also trpE476DCBA on pMU91
From the text: Plasmid pMU3018 (FIG. 6) carries the tip promoter, the trpE gene and part of the trpD gene on a 2.9 kb SmaI HindIII fragment. pMU3018 is derived from pMU578, which is a single-copy Tp^R plasmid carrying a galK'-lac'ZA fusion, similar to the promoter cloning vector pMU575 (Andrews, A. E., B. Lawley, and A. J. Pittard. (1991). J. Bacteriol. 173: 5068-5078), but with a SmaI EcoRI BglII linker replacing the SmaI site, and the DraI fragments removed, deleting lacY and lacA. If pMU3018 DNA is digested with these two enzymes and the fragments electrophoresed in a low melting point agarose gel it is a simple matter to separate and purify the trpEtrpD' 2.9 kb fragment and the larger 13 kb vector fragment. This 2.9 kb fragment was mutagenised with 50 mM nitrous acid for 60 minutes following the method of Ray et al. (Ray, J. M., C. Yanofsky and R. Bauerle. (1988). J. Bacteriol. 170: 5500-5506), except that spermine (1 mM) was added to the mutagenesis mixture. After mutagenesis, the fragment was religated with the larger 13 kb fragment and the products of ligation were transformed into strain JP6768, an E. coli strain which is trpR^-, and in which the trpE gene has been deleted from the chromosome but trpDCB and A are fully functional (ΔtrpLE1413 (Miozzari, G. F. and C. Yanofsky. (1978). J. Bacteriol. 133: 1457-1466). Approximately 2,000 transformants were selected on Luria agar containing trimethoprim. These were screened for growth on minimal medium supplemented with the tryptophan analogue 5-fluorotryptophan at 15 mM. Clones which grew were potential feedback-resistant mutants altered in the enzyme anthranilate synthase. The anthranilate synthase activity of each of these clones was assayed in the presence of very high levels of tryptophan (13.5 g/l) using the assay described in Cho, K-O. and C. Yanofsky. (1988). J. Mol. Biol. 204: 41-50. […] The mutant allele present in this strain was called trpE483. […] FIG. 4 compares the feedback sensitivity of anthranilate synthase from a strain with the wild-type allele (JP6768/pMU3018) and strains with the trpE483 allele (JP6768/pMU3025) and with the trpE476 allele (JP6768/pMU3019).
The effect of temperature of incubation on both stability and productivity for an overproducing strain carrying the trpS378 allele and a plasmid carrying the trp operon encoding a feedback-resistant anthranilate synthase, is shown in FIG. 2. Low temperatures favour high stability and low productivity, whilst higher temperatures favour productivity at the expense of stability. […] The data in FIG. 2 is for JP6015/pMU91 and the primary selection is for Ser^+. JP6015 is derived from JP4153 (see Example 4) by introduction of sac^+ by transduction,and introduction of serA^- by cotransduction with a closely linked Tn10 transposon, and subsequent selection of a tetracycline sensitive derivative. pMU91 is a plasmid derived from pSC101 (Cohen, S. N. and A. C. Chang (1977). J. Bacteriol. 132: 734-737), carrying Tc^R, trpE476DCBA and serA^+ (see FIG. 9). The trpE476DCBA alelle was isolated using the specialized transducing phage .PHI.80pt190h (Herschfield, V. et al (1974). Proc. Natl. Acad. Sci. USA 71:3455-3459). A trpE^- strain carrying .PHI.80pt190h was plated on minimal medium containing 1 mM 5-methyltryptophan (5MT). A pool of cells was induced by ultraviolet light to produce a lysate which was used in a subsequent transduction, selecting Trp^+ 5MTR transductants. […]

[8] = tested on: transport negative tryptophan auxotroph carrying trpS378 (JP6006); experiment: Growth response to tryptophan, trpS378 auxotroph defective in active transport; type: cell-based, Escherichia coli
From the text: as §1, §2

For `N[C@@H](Cc1c[nH]c2ccccc12)C(=O)O` [tryptophan, L-tryptophan], the “tryptophan level supporting growth at a fast rate” value [1] is given as 50 µM, the IC50 [2] is given as roughly 0.02 mM and the IC50 ([3]; mutants conferring higher feedback-resistance (Aiba et al. 1982), read-out: 50% inhibition values) is given as greater than 20 mM. The IC50 ([3]; mutants typically chosen for tryptophan overproduction (Aiba et al., CA 1182409), read-out: tryptophan concentration at which the 50% inhibition figure occurred) was roughly 13 mM, the inhibition of activity ([4]; 1 mM tryptophan) was “less than 10%” and the “inhibition of anthranilate synthase” value ([4]; tryptophan 12 g/l (60 mM)) was 60-80%. For the same compound, the inhibition of activity [5] was “less than 10%”, the “tryptophan level required for optimal growth” value [6] was ~ 10^-3 M and the “tryptophan level at which the strain grows with a normal doubling time” value ([6]; FIG. 1) was no less than 1 mM. For the same compound, the inhibition of activity ([7]; 1 mM tryptophan) was “less than 10%”, the “anthranilate synthase activity, % of full activity” value ([7]; 10 mM L-tryptophan) was 70% and the “resistance to feedback inhibition” value ([7]; tryptophan 1 g/l) was “good resistance”. For the same compound, the “inhibition of anthranilate synthase” value ([7]; tryptophan 12 g/l (60 mM)) was 60-80%, the inhibition of activity ([7]; tryptophan 13.5 g/l) was “more than 60%” and the “tryptophan required for good growth” value ([8]; 30° C., FIG. 1) was “at least 5 mM”. The “tryptophan concentration before maximum growth rate is achieved” value ([8]; minimal medium) was 5 mM.
